Key:
Type in all cases: biochemical
KDM4C (JMJD2C) = molecular target: T1, KDM4C (JMJD2C) (Homo sapiens, UniProt Q9H3R0); experiment: Histone lysine demethylase AlphaLISA assay, KDM4C; conditions: read-out: KDM4C HDME Inhibition IC50
T1 sequence (Q9H3R0 1-349): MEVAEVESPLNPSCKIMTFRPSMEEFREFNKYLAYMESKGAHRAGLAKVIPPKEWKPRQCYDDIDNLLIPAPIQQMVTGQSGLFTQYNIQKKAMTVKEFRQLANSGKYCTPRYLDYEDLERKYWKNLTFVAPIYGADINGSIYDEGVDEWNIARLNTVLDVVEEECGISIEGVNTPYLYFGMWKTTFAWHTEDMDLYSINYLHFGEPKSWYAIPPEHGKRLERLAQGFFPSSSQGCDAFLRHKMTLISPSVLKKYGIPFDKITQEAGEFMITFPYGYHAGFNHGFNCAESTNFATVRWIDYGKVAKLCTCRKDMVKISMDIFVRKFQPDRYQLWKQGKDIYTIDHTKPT
Method in brief: (§1)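 Biotinylated methylated H3 peptides (K9, K4, K27 or K36 marks) served as substrate, with 25 μM L-Asc and 10 μM α-KG. Enzymes were preincubated 10 min, then exposed to compounds (3% DMSO solutions) 10 min; product detected by AlphaLISA acceptor and streptavidin donor beads at room temperature in dark.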

KDM4A (JMJD2A) = molecular target: T2, KDM4A (JMJD2A) (Homo sapiens, UniProt O75164); experiment: Histone lysine demethylase AlphaLISA assay, KDM4A; conditions: read-out: KDM4A HDME Inhibition IC50
T2 construct: 1-350; purchased BPS Bioscience, US; host or cells: E. coli
T2 sequence (O75164 1-350): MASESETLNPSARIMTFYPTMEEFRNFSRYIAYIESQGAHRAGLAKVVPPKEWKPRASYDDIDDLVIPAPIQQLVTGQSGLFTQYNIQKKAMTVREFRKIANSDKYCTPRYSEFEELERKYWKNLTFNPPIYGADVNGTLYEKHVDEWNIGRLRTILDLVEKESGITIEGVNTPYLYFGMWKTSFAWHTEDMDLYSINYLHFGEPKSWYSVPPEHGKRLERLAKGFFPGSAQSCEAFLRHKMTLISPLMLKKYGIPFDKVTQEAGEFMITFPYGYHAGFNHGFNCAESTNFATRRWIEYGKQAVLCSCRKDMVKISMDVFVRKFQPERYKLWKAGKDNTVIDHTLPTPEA
Method: Assays are performed analogously to the protocol described by PerkinElmer (Roy et al. PerkinElmer Technical Note: AlphaLISA #12, April 2011)
Enzymes are dissolved in enzyme buffer and incubated for 10 min before being added to 3% DMSO solutions of compounds in enzyme buffer. Incubated for another 10 minutes, before substrate solution is added and the reaction mixture is incubated at room temperature. 10 μL acceptor beads, suspended in Epigenetic Buffer (Perkin Elmer AL008) from stock, are added and the suspension is incubated in the dark at room temperature, before a suspension of streptavidin donor beads (Perkin Elmer 6760002) in Epigenetic Buffer is added. After incubation at room temperature in the dark the plates are read.
BK9M3: Biotin-ARTKQTAR(KMe3)STGGKAPRKQ-NH2 (Caslo, Denmark) […]
Substrate Solution: Substrate, 25 μM L-Asc, and 10 μM α-KG in Buffer A.

KDM2B (FBXL10) = molecular target: T3, KDM2B (FBXL10) (Homo sapiens, UniProt Q8NHM5); experiment: Histone lysine demethylase AlphaLISA assay, KDM2B; conditions: read-out: KDM2B HDME Inhibition IC50
T3 sequence (Q8NHM5 1-650): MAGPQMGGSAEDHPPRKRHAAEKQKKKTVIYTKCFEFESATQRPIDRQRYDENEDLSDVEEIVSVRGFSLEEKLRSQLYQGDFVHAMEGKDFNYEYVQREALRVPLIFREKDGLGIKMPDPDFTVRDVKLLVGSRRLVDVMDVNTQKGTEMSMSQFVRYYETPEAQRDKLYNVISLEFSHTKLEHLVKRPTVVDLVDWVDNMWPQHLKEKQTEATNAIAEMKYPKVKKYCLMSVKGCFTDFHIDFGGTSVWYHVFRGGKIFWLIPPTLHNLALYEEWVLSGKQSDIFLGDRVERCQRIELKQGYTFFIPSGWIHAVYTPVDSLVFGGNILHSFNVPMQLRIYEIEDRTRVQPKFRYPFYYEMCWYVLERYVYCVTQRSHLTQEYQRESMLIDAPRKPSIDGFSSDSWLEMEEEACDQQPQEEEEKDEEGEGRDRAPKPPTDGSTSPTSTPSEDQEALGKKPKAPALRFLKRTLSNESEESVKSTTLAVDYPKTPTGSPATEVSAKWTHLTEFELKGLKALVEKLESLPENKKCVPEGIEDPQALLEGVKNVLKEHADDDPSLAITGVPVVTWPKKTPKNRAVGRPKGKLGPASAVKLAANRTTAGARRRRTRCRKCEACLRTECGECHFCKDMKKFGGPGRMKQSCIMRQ
Method in brief: as §1

IC50 (KDM4C (JMJD2C))	IC50 (KDM4A (JMJD2A))	IC50 (KDM2B (FBXL10))	SMILES
> 2.5 µM	> 2.5 µM	> 2.5 µM	CN(C)CCC/N=C/c1ccnc(CNCCCN(C)C)c1 [Compound 37, [3-(dimethylamino)propyl]-({4-[{[3-(dimethylamino)propyl]-imino}methyl]pyridin-2-yl}methyl)amine]
0.25 to 2.5 µM	> 2.5 µM	> 2.5 µM	CN(C)CCCNCc1cc(/C=N/CCN(C)C)ccn1 [Compound 38, ({4-[{[2-(dimethylamino)ethyl]-imino}methyl]pyridin-2-yl}methyl)[3-(dimethylamino)-propyl]amine]
> 2.5 µM	0.25 to 2.5 µM	0.25 to 2.5 µM	CCSCCNCc1cc(/C=N/C2CC2)ccn1 [Compound 39, N-{[2-({[2-(ethylsulfanyl)-ethyl]amino}methyl)pyridin-4-yl]methylidene}-cyclopropanamine]
> 2.5 µM	> 2.5 µM	> 2.5 µM	CN1CCCC1CCNCc1cc(/C=N/C2CC2)ccn1 (stereo not drawn) [Compound 40, N-{[2-({[2-(l-methylpyrrolidin-2-yl)ethyl]amino}methyl)-pyridin-4-yl]methylidene}-cyclopropanamine]
0.25 to 2.5 µM	< 0.25 µM	> 2.5 µM	CN(CCCNCc1cc(/C=N/C2CC2)ccn1)Cc1ccccc1 [Compound 41, N-({2-[({3-[benzyl(methyl)amino]-propyl}amino)methyl]-pyridin-4-yl}methylidene)-cyclopropanamine]
> 2.5 µM	> 2.5 µM	> 2.5 µM	C(=N/C1CC1)/c1ccnc(CNCCCN2CCCC2)c1 [Compound 42, N-{[2-({[3-(pyrrolidin-1-yl)propyl]amino}-methyl)pyridin-4-yl]methylidene}-cyclopropanamine]
< 0.25 µM	0.25 to 2.5 µM	> 2.5 µM	CN(C)C/C=C/CNCc1cc(/C=N/C2CC2)ccn1 [Compound 43, N-{[2-({[(2E)-4-(dimethylamino)but-2-en-1-yl]amino}-methyl)pyridin-4-yl]methylidene}-cyclopropanamine]
< 0.25 µM	> 2.5 µM	> 2.5 µM	C(=N\C1CC1)/c1ccnc(CNCCCCN2CCC2)c1 [Compound 44, N-{[2-({[4-(azetidin-1-yl)butyl]amino}methyl)-pyridin-4-yl]methylidene}-cyclopropanamine]
> 2.5 µM	> 2.5 µM	> 2.5 µM	CN(C)CCCCNCc1cc(/C=N\C2CC2)ccn1 [Compound 45, N-{[2-({[4-(dimethylamino)butyl]-amino}methyl)-pyridin-4-yl]methylidene}-cyclopropanamine]
> 2.5 µM	0.25 to 2.5 µM	> 2.5 µM	CN(C)CC1CCC(CNCc2cc(/C=N/C3CC3)ccn2)CC1 (stereo not drawn) [Compound 46, N-[(2-{[({4-[(dimethylamino)-methyl]cyclohexyl}-methyl)amino]-methyl}pyridin-4-yl)methylidene]-cyclopropanamine]
> 2.5 µM	> 2.5 µM	> 2.5 µM	CN(C)CCCCCNCc1cc(/C=N/C2CC2)ccn1 [Compound 47, N-{[2-({[5-(dimethylamino)-pentyl]amino}-methyl)pyridin-4-yl]methylidene}-cyclopropanamine]
0.25 to 2.5 µM	< 0.25 µM	> 2.5 µM	CCN(CC)CCCCNC(=O)CNCc1cc(/C=N/C2CC2)ccn1 [Compound 48, 2-[({4-[N-cyclopropyl-carboximidoyl]pyridin-2-yl}methyl)amino]-N-[4-(diethylamino)-butyl]acetamide]
0.25 to 2.5 µM	< 0.25 µM	> 2.5 µM	O=C(CNCc1cc(/C=N/C2CC2)ccn1)N1CCC[C@@H]1CN1CCCC1 [Compound 49, 2-[({4-[N-cyclopropyl-carboximidoyl]pyridin-2-yl}methyl)amino]-1-[(2R)-2-(pyrrolidin-1-ylmethyl)pyrrolidin-1-yl]ethan-1-one]

Continued, molecule first:

SMILES	IC50 (KDM4C (JMJD2C))	IC50 (KDM4A (JMJD2A))	IC50 (KDM2B (FBXL10))
c1ccc(CN2CCC[C@H]2CNCc2cc(CNCC3CC3)ccn2)cc1 [Compound 16, {[(2S)-1-benzylpyrrolidin-2-yl]methyl}[(4-{[(cyclopropylmethyl)-amino]methyl}pyridin-2-yl)methyl]amine]	> 2.5 µM	> 2.5 µM	> 2.5 µM
CNCc1ccnc(CNCCCN(C)Cc2ccccc2)c1 [Compound 17, benzyl(methyl){3-[({4-[(methylamino)methyl]-pyridin-2-yl)methyl)-amino]propyl}-amine]	0.25 to 2.5 µM	> 2.5 µM	> 2.5 µM
CN(C)CCNCc1cc(CNC(C#N)C2CC2)ccn1 (stereo not drawn) [Compound 21, 2-cyclopropyl-2-({[2-({[2-(dimethylamino)ethyl]-amino}methyl)pyridin-4-yl]methyl}amino)-acetonitrile]	> 2.5 µM	> 2.5 µM	> 2.5 µM
CC(C#N)NCc1ccnc(CNCCCN(C)C)c1 (stereo not drawn) [Compound 22, 2-({[2-({[3-(dimethylamino)propyl]-amino}methyl)pyridin-4-yl]methyl}amino)-propanenitrile]	> 2.5 µM	> 2.5 µM	> 2.5 µM
N#CCNCc1ccnc(CNCCCCN(Cc2ccccc2)C2CC2)c1 [Compound 23, 2-[({2-[({4-[benzyl(cyclopropyl)-amino]butyl}amino)-methyl]pyridin-4-yl}methyl)amino]-acetonitrile]	> 2.5 µM	> 2.5 µM	> 2.5 µM
CNC(C#N)c1ccnc(CNCCCN(C)C)c1 (stereo not drawn) [Compound 24, 2-[2-({[3-(dimethylamino)propyl]-amino}methyl)pyridin-4-yl]-2-(methylamino)-acetonitrile]	0.25 to 2.5 µM	0.25 to 2.5 µM	> 2.5 µM
CCN(CCN(C)C)C(=O)CNCc1cc(CNC(=O)C(F)(F)F)ccn1 [Compound 25, N-[(2-{[({[2-(dimethylamino)ethyl]-(ethyl)carbamoyl}-methyl)amino]methyl}-pyrtdin-4-yl)methyl]-2,2,2-trifluoroacetamide]	> 2.5 µM	> 2.5 µM	> 2.5 µM
CN(C)C(=O)CNCc1cc(/C=N\C2CC2)ccn1 [Compound 33]	< 0.25 µM	< 0.25 µM	0.25 to 2.5 µM
CN(C)C(=O)CNCc1cc(/C=N/CCCc2ccccc2)ccn1 [Compound 34, N,N-dimethyl-2-[({4-[[(3-phenylpropyl)imino]-methyl]pyridin-2-yl}methyl)amino]-acetamide]	0.25 to 2.5 µM	> 2.5 µM	> 2.5 µM
CC1CC1/N=C/c1ccnc(CNCC(=O)N(C)C)c1 (stereo not drawn) [Compound 35, N,N-dimethyl-2-[({4-[N-(2-methylcyclopropyl)-carboximidoyl]pyridin-2-yl}methyl)amino]-acetamide]	0.25 to 2.5 µM	< 0.25 µM	0.25 to 2.5 µM
CN(C)C(=O)CNCc1cc(/C=N/CCC2CCCCC2)ccn1 [Compound 36, 2-[({4-[[(2-cyclohexylethyl)imino]-methyl]pyridin-2-yl}methyl)amino]-N,N-dimethylacetamide]	0.25 to 2.5 µM	0.25 to 2.5 µM	> 2.5 µM

— patent publication US9650339B2, “Inhibitors of histone demethylases” (Gilead Sciences, Inc., priority 2013, dated 2017)
